Results from patent US9707267B2, “Beta-turn peptidomimetic cyclic compounds for treating dry eye” (Mimetogen Pharmaceuticals, Inc., priority 2008, dated 2017).

How the values were obtained:
[1] = test system: rat conjunctival goblet cells; assay: Glycoconjugate secretion from rat conjunctival goblet cells, ELLA (Example 1); type: cell-based; details: 2 hours, mean±sem
Description: Cells derived from the explants were grown in RPMI 1640 supplemented with 10% fetal bovine serum (FBS) and penicillin (100 U/mL)/streptomycin (100 μg/mL) at 37° C. in a humidified 5% CO2-atmosphere for seventy-two hours. Contaminating nongoblet cells were removed by scraping them from the plate. During this time, goblet cells migrated from the pieces and began to proliferate. After one week, the goblet cells were trypsinized and plated in twenty-four well culture plates with RPMI-1640 media supplemented with 10% FBS.
To measure glycoconjugate secretion, the conjunctival goblet cells were grown to confluence and were serum deprived for two hours before addition of nerve growth factor (NGF), carbachol (Cch), compound D3, compound 3Aa and compound 3Ak for two hours. Compounds D3, 3Aa and 3Ak were administered at concentrations of 30 μm (micromolar), 10 μM, 1 μM and 0.3 μM. The vehicle used to dissolve the compounds, dimethyl sulfoxide (DMSO) was also included. DMSO was used as the basal control for the 30 μM concentration of compound, which was at 0.1% (v/v). The cholinergic agonist carbachol (Cch), added at 100 μM (micromolar), was a positive control for glycoconjugate secretion. The amount of glycoconjugate secreted into the media was measured by enzyme-linked lectin assay (ELLA). The media were collected and analyzed for amount of the lectin-detectable glycoconjugates, including mucins. The amount of secretion was measured by using the lectin UEA-I which is specific for rat conjunctival goblet cell mucins. Biotinylated UEA-I lectin and alkaline phosphatase-labeled streptavidin were used as described in Rios, J. D., et al., “Role of Neurotrophins and Neurotrophin Receptors in Rat Conjunctival Goblet Cell Secretion and Proliferation, Ophthalmology & Visual Science, 48: 1543-1551 (2007), the entire content of which is incorporated herein by reference. The cells were removed and sonicated, and the cell homogenate was analyzed for the total amount of protein by using the Bradford protein assay. […] Glycoconjugate secretion was expressed as the increase (x-fold) over basal.
Data for CGC glycoconjugate secretion and proliferation were expressed as the increase (x-fold) above basal value, which was standardized to 1.0. For example, for the 0.3 μM (micromolar), 1 μM and 10 μM doses, the CGC glycoconjugate secretion and proliferation were expressed as test compound over untreated cells. For the 30 μM dose, the CGC glycoconjugate secretion and proliferation were expressed as test compound over DMSO untreated cells. Results are expressed as the mean±sem.

[2] = test system: cultured rat conjunctival goblet cells; assay: Goblet cell glycoconjugate secretion, ELLA with UEA-1 (Example 2); type: cell-based; details: 2 hours; for Glycoconjugate Secretion, Mean ± sem: mean of rats; for Glycoconjugate Secretion, Mean ± SD: mean of rats/plates
Description: The culturing of conjunctival goblet cells from explant cultures was as previously described in Shatos, M. et al., “Isolation, Characterization, and Propagation of Rat Conjunctival Goblet Cells In Vitro,” IOVS 42:1455-1464 (2001), the entire content of which is incorporated herein by reference. The tissue was finely minced and individual pieces were anchored onto scored 6-well cultures dishes in 0.5 mL of complete RPMI-1640 (supplemented with 10% FBS, 2 mM glutamine and 100 μg/mL penicillin-streptomycin) and incubated at 37° C. in a humidified 5% CO2-atmosphere. Explant cultures were refed every 2 days. Within a few days, goblet cells migrated from the pieces and began to proliferate. After approximately one week, the tissue plugs were removed and the goblet cells were allowed to grow to confluence. Cells were passaged once by trypsinization of adherent cells with 0.05% trypsin-0.53 mM EDTA (pH 7.4), and plated in 8-well Laboratory Tek chamber slides (histochemistry) or in 96 well (proliferation), 24 well (secretion), or 6 well (western blots) culture plates with complete RPMI-1640 media.
To measure cell secretion, goblet cells were grown to confluence and then serum depleted for 2 hours prior to stimulation. Cells were incubated with compound D3 at 2, 10, and 50 μM, NGF at 0.1, 1 and 10 nM, and PMA at 0.1, 1, and 10 nM in serum-free RPMI for 2 hours. Goblet cell secretion was measured using an enzyme-linked lectin assay (ELLA). Briefly, an aliquot of the cell culture supernatant was transferred to a 96-well polystyrene microtiter plate in triplicate (Corning Life Sciences #2592, Fisher Scientific, Nepean, Ont). A dilution series of bovine submaxillary mucin (BSM) (Sigma, St. Louis, Mo.) was included on each plate as the standard (standard curve data and data showing that detection of BSM is linear between 0.003 and 0.1 μg not shown). The plates were coated by evaporation at 37° C. overnight. After, the plates were washed three times with wash buffer [PBS containing 0.3% BSA, 0.05% Tween-20] then blocked for nonspecific binding with PBS containing 3% BSA and 0.05% Tween-20 at 37° C. for 1 hour. The wells were rinsed three times in wash buffer, and then incubated in 2 μg/mL biotinylated UEA-1 diluted in wash buffer (Vector Labs, Burlingame, Calif.) at 37° C. for 1 hour. The wells were rinsed three times in wash buffer, and then incubated in 1 μg/mL HRP-conjugated neutravidin diluted in wash buffer (Pierce, Rockford, Ill.) at 37° C. for 1 hour. After the wells were rinsed three times in wash buffer, the color development was performed with TMB (Promega, Madison, Wis.) and stopped with 0.5N Sulfuric acid. The absorbance was read at 450 nm on a Benchmark Plus (Biorad). The goblet cells remaining in the culture wells were either scraped in RIPA buffer [1% TritonX-100, 20 mM Tris-HCl pH 7.5, 150 mM NaCl, 1.5 mM MgCl2, 1% Na deoxycholate, 1 mM EGTA, 1 mM EDTA, 0.1% SDS, 10% glycerol, 1 mM Na vanadate, 10 mM Na fluoride, 10 mM Na pyrophosphate, complete mini EDTA-free protease inhibitors (Roche Applied Science, Indianapolis, Ind.)] or 1M Tris-buffer (pH 7.5), collected and sonicated. The amount of protein in the cell homogenate was analyzed using the Bradford protein assay kit using a dilution series of bovine serum albumin (BSA) as the standard (BioRad, Montreal, PQ). Glycoconjugate secretion was normalized to total protein in the homogenate. Data was then expressed as fold increase above basal. […]

p42/44 MAPK = assay: Activation of p42/44 MAPK in goblet cells, Western blot (Example 2); type: cell-based, rat; details: 100 nM, 5 minutes, positive control
Description: The activation of p42/44 MAPK was examined using Western blot techniques. Goblet cells were serum starved in serum-free RPMI for 4-6 hrs prior to the addition of PMA (100 nM), NGF (1 or 10 nM), or MIM-D3 (10 or 50 μM) for 5 minutes at 37° C. After, cells were rinsed once in cold PBS, scraped in 100 μL of 1×SDS-PAGE sample buffer [62.5 mM Tris-HCl pH 6.8, 10% glycerol, 2% SDS, 5% β-mercaptoethanol, 0.02 mg/mL bromophenol blue] and sonicated for 20 minutes. The homogenates were centrifuged at 14,900 g for 15 min at 4° C. Proteins in a […] of the supernatant were separated by SDS-PAGE (8% acrylamide gels) and transferred to nitrocellulose membranes. The membranes were blocked for 2 hours in 5% non-fat dried milk in buffer containing 20 mM Tris-HCl, pH 8.0, 150 mM NaCl, and 0.01% Tween-20 (TBST). The blots were then probed with an antibody directed against the phosphorylated form of MAPK1/2 (Calbiochem, San Diego, Calif.) at 0.1 μg/mL in TBST containing 5% BSA overnight at 4° C., followed by a 1 hour incubation in HRP-conjugated secondary anti-mouse antibody (Sigma, St. Louis, Mo.) at room temperature in TBST containing 5% non-fat dried milk. Immunoreactive bands were visualized using the enhanced chemiluminescence method (Perkin Elmer, Waltham, Mass.). The blots were stripped at 55° C. for 30 minutes in stripping buffer [62.5 mM Tris-HCl pH 6.8, 2% SDS, 0.1M β-mercaptoethanol] followed by re-probing with an antibody directed against actin (1:5000 dilution, Sigma, St. Louis, Mo.) in TBST containing 5% non-fat dried milk and incubation in HRP-conjugated secondary anti-rabbit antibody. The immunoreactive bands were digitally scanned on an EPSON scanner and analyzed using NIH ImageJ v1.38x. The amount of phosphorylated MAPK in each sample was standardized to the amount of total actin protein in the sample.
To determine if compound D3 and NGF induced glycoconjugates secretion via activation of the MAPK pathway, cultured goblet cells from 3 independent rats were stimulated by 10 and 50 μM compound D3, 1 and 10 nM NGF or PMA (100 nM, the positive control) for 5 minutes and MAPK activity was measured by western blot analysis. A representative western blot from 3 independent rat goblet cell cultures is shown in FIG. 9, and the quantification is shown in FIG. 10. There was a statistically significant effect of treatment on MAPK activation (P<0.0001). Compound D3 increased MAPK activity above basal by 2.5±0.3 fold at 10 μM and 2.2±0.5 fold at 50 μM and NGF increased MAPK activity by 2.8±0.5 at 1 nM (P<0.05) and 1.7±0.2 at 10 nM.

CC[C@H](C)[C@@H]1NC(=O)c2cc(N)ccc2OCc2ccc(C(N)=O)cc2NC(=O)[C@H](CCCCN)NC1=O [Compound 3Aa]
CGC glycoconjugate secretion ([1]; 0.3 μM): 2.1±0.3 fold above basal
CGC glycoconjugate secretion ([1]; 1 μM): 1.6±0.3 fold above basal
CGC glycoconjugate secretion ([1]; 10 μM): 1.7±0.4 fold above basal
CGC glycoconjugate secretion ([1]; 30 μM, over DMSO basal): 2.1±0.7 fold above basal

C[N+](C)(C)CCOC(N)=O [Cch, carbachol, reference compound]
CGC glycoconjugate secretion ([1]; 100 μM, positive control): 1.3±0.3 fold above basal

N=C(N)NCCC[C@@H]1NC(=O)c2cc(N)ccc2OCc2ccc(C(N)=O)cc2NC(=O)CNC1=O [Compound 3Ak]
CGC glycoconjugate secretion ([1]; 0.3 μM): 1.4±0.3 fold above basal
CGC glycoconjugate secretion ([1]; 1 μM): 1.1±0.3 fold above basal
CGC glycoconjugate secretion ([1]; 10 μM): 1.2±0.1 fold above basal
CGC glycoconjugate secretion ([1]; 30 μM, over DMSO basal): 1.1±0.3 fold above basal

CCCCCCCCCCCCCC(=O)O[C@@H]1[C@@H](C)[C@@]2(O)[C@@H](C=C(CO)C[C@]3(O)C(=O)C(C)=C[C@@H]23)[C@@H]2C(C)(C)[C@]12OC(C)=O [PMA, Phorbol-12-myristate-13-acetate, reference compound]
Glycoconjugate Secretion ([2]; 0.1 nM, Rat 2): 1.39 Fold increase above basal
Glycoconjugate Secretion ([2]; 0.1 nM, Rat 2 Plate 2): 3.2 μg glycoconjugate/mg total protein
Glycoconjugate Secretion ([2]; 0.1 nM, Rat 3): 1.41 Fold increase above basal
Glycoconjugate Secretion ([2]; 0.1 nM, Rat 3 Plate 1): 6.9 μg glycoconjugate/mg total protein
Glycoconjugate Secretion, Mean ± sem ([2]; 0.1 nM): 1.40 ± 0.01 Fold increase above basal
Glycoconjugate Secretion, Mean ± SD ([2]; 0.1 nM): 5.1 ± 2.6 μg glycoconjugate/mg total protein
Glycoconjugate Secretion ([2]; 1 nM, Rat 1): 1.05 Fold increase above basal
Glycoconjugate Secretion ([2]; 1 nM, Rat 1 Plate 2): 4.1 μg glycoconjugate/mg total protein
Glycoconjugate Secretion ([2]; 1 nM, Rat 2): 1.78 Fold increase above basal
Glycoconjugate Secretion ([2]; 1 nM, Rat 2 Plate 2): 4.1 μg glycoconjugate/mg total protein
Glycoconjugate Secretion, Mean ± sem ([2]; 1 nM): 1.42 ± 0.37 Fold increase above basal
Glycoconjugate Secretion, Mean ± SD ([2]; 1 nM): 4.1 ± 0 μg glycoconjugate/mg total protein
Glycoconjugate Secretion ([2]; 10 nM, Rat 1): 1.56 Fold increase above basal
Glycoconjugate Secretion ([2]; 10 nM, Rat 1 Plate 1): 11.3 μg glycoconjugate/mg total protein
Glycoconjugate Secretion ([2]; 10 nM, Rat 1 Plate 2): 3.5 μg glycoconjugate/mg total protein
Glycoconjugate Secretion ([2]; 10 nM, Rat 2): 1.30 Fold increase above basal
Glycoconjugate Secretion ([2]; 10 nM, Rat 2 Plate 2): 3.0 μg glycoconjugate/mg total protein
Glycoconjugate Secretion ([2]; 10 nM, Rat 3): 1.24 Fold increase above basal
Glycoconjugate Secretion ([2]; 10 nM, Rat 3 Plate 1): 6.1 μg glycoconjugate/mg total protein
Glycoconjugate Secretion ([2]; 10 nM, Rat 4): 0.85 Fold increase above basal
Glycoconjugate Secretion ([2]; 10 nM, Rat 4 Plate 2): 8.4 μg glycoconjugate/mg total protein
Glycoconjugate Secretion, Mean ± sem ([2]; 10 nM): 1.30 ± 0.25 Fold increase above basal
Glycoconjugate Secretion, Mean ± SD ([2]; 10 nM): 6.5 ± 3.5 μg glycoconjugate/mg total protein
increase in mucin secretion ([2]; 0.1, 1 and 10 nM, not dose-dependent): ~1.4 fold
MAPK activity above basal (p42/44 MAPK): 6.1±0.7 fold
